Data set [1] is described as follows: Hela cell cytotoxicity (CC50). The note with it: human, HeLa cells (human cervical cancer cells), CC50_Hela, half of the toxic concentration.
The next data set relates to M. tuberculosis H37Rv. The data set is described as follows: In vitro efficacy test using the H37Rv strain, Microplate Alamar Blue Assay (MABA) MIC. It counts as cell-based, Mycobacterium tuberculosis. The conditions noted are these: for MIC: Mycobacterium tuberculosis, H37RV. For orientation: The colour change of resazurin is a common sign of viable cells or microbes.
Data set [2] concerns Mycobacterium smegmatis strain ATCC19420. Description: In vitro efficacy test using Mycobacterium smegmatis strain ATCC19420 (MIC). The conditions noted are these: Mycolicibacterium smegmatis, ATCC19420, 72 h, CA-MHB + 0.02% Tween 80, 30° C., read after 72 hours. The data set is classed as cell-based.
In a further data set the test system is Vero Cell. The data set is described as follows: Vero cell cytotoxicity (IC50). The conditions noted are these: Chlorocebus sabaeus, Vero, African green monkey kidney cells. It counts as cell-based.
The subject of a further data set is M. tuberculosis H37R. The data set is described as follows: microbe, parasite or virus in culture. The data set is classed as cell-based, Mycobacterium tuberculosis. The note with it: Mycobacterium tuberculosis, H37R; read-out: M. tuberculosis H37R LORA (MIC).
[3] abbreviates: aerobic, 7H9 medium, Alamar Blue, read-out: M. tuberculosis H37Rv MABA (MIC).
Where [4] appears, read: wild-type H37Rv strain, two values per compound, read-out: MABA MIC vs. H37Rv.
Setting [5] is: wild-type H37Rv strain, two values per compound.

Converted amounts (≈) assume the structure as drawn. Read-outs that look alike come from different tables or passages of the source. Bounds are passed on as bounds.

Broadly, the CC50 is the concentration giving 50% cytotoxicity. As usually defined, the IC50 is the concentration needed to halve the response being measured.

Consider `COc1ncc(-c2ccc(C(F)(F)F)cc2)cc1C(c1ccccc1)C(O)(CCN(C)C)c1cccc2ccccc12` (stereo not drawn) [Compound 285, 4-(dimethylamino)-1-(2-methoxy-5-(4-(trifluoromethyl)phenyl)pyridin-3-yl)-2-(naphthalen-1-yl)-1-phenylbutan-2-ol], for which, in data set [1], the CC50 was > 64 µg/mL. For the same molecule, the MIC was 0.96 µg/mL with M. tuberculosis H37Rv (setting [3]), 0.0156 µg/mL in data set [2] and 0.63 µg/mL (≈ 1.1 µM) in the data set with M. tuberculosis H37R. For the same molecule, in the data set with Vero Cell, the IC50 is > 32 µg/mL.
In data set [1], `COc1ncc(-c2ccc(Br)cc2)cc1C(c1ccccc1)C(O)(CCN(C)C)c1cccc(Cl)c1` (stereo not drawn) [Compound 355, 1-(5-(4-bromophenyl)-2-methoxypyridin-3-yl)-2-(3-chlorophenyl)-4-(dimethylamino)-1-phenylbutan-2-ol] came in with a CC50 of 53.2 µg/mL (≈ 94.1 µM). The results for the MIC (in the data set with M. tuberculosis H37Rv (setting [3]); in data set [2]; in the data set on M. tuberculosis H37R) were 0.17 µg/mL, 0.0156 µg/mL and 0.21 µg/mL (≈ 0.371 µM), respectively. In addition, the IC50 in the data set on Vero Cell is > 32 µg/mL.
Taken in the same sequence, the figures for `COc1ncc(-c2ccc(Cl)cc2)cc1C(c1ccccc1)C(O)(CCN(C)C)c1cc(Cl)cc(Cl)c1` (stereo not drawn) [Compound 341, 1-(5-(4-chlorophenyl)-2-methoxypyridin-3-yl)-2-(3,5-dichlorophenyl)-4-(dimethylamino)-1-phenylbutan-2-ol] were > 64 µg/mL, 0.031 µg/mL, ≤ 0.0625 µg/mL, 0.23 µg/mL (≈ 0.414 µM) and > 32 µg/mL.
`COc1ncc(-c2ccccc2)cc1C(c1ccccc1)C(O)(CCN(C)C)c1cc(F)ccc1F` (stereo not drawn) [Compound 39, 2-(2,5-difluorophenyl)-4-(dimethylamino)-1-(2-methoxy-5-phenylpyridin-3-yl)-1-phenylbutan-2-ol]: the results for the MIC (with M. tuberculosis H37Rv (setting [3]); in data set [2]; in the data set on M. tuberculosis H37R) were 0.68 µg/mL, 0.125 µg/mL and 0.71 µg/mL (≈ 1.45 µM), respectively. The IC50 in the data set on Vero Cell was > 50 µg/mL.
With `COc1ncc(-c2cccc(F)c2)cc1C(c1ccccc1)C(O)(CCN(C)C)c1cccc2ccccc12` (stereo not drawn) [Compound 87, 4-(dimethylamino)-1-(5-(3-fluorophenyl)-2-methoxypyridin-3-yl)-2-(naphthalen-1-yl)-1-phenylbutan-2-ol], the CC50 in data set [1] worked out at 62.8 µg/mL (≈ 121 µM). In addition, the MIC in the data set with M. tuberculosis H37Rv (setting [3]) was 0.48 µg/mL; in data set [2], ≤ 0.0625 µg/mL; in the data set with M. tuberculosis H37R, 1.18 µg/mL (≈ 2.27 µM). The IC50 with Vero Cell was > 50 µg/mL.
Taken in the same sequence, the figures for `COc1ncc(-c2ccc(Cl)cc2)cc1C(c1ccccc1)C(O)(CCN(C)C)c1cc(F)cc(F)c1` (stereo not drawn) [Compound 280, 1-(5-(4-chlorophenyl)-2-methoxypyridin-3-yl)-2-(3,5-difluorophenyl)-4-dimethylamino-1-phenylbutan-2-ol] were 35 µg/mL (≈ 66.9 µM), 0.04 µg/mL, 0.0156 µg/mL, 0.16 µg/mL (≈ 0.306 µM) and > 32 µg/mL.
Regarding `COc1ncc(-c2ccc(Cl)cc2)cc1C(c1ccccc1)C(O)(CCN(C)C)c1ccc(Br)cc1` (single isomer, unassigned) [Compound 390, 2-(4-bromophenyl)-1-(5-(4-chlorophenyl)-2-methoxypyridin-3-yl)-4-(dimethylamino)-1-phenylbutan-2-ol], the midpoint of cytotoxicity in data set [1], the CC50, lay at 24.1 µg/mL (≈ 42.7 µM). The values for the MIC (in the data set with M. tuberculosis H37Rv (setting [3]); in data set [2]; in the data set on M. tuberculosis H37R) were 0.087 µg/mL, 0.0625 µg/mL and < 0.125 µg/mL, respectively. Further, the IC50 with Vero Cell is > 32 µg/mL.
Taken in the same sequence, the figures for `COc1ncc(-c2cnsc2)cc1C(c1ccccc1)C(O)(CCN(C)C)c1cccc2ccccc12` (stereo not drawn) [Compound 165, 4-(dimethylamino)-1-(5-(isothiazol-4-yl)-2-methoxypyridin-3-yl)-2-(naphthalen-1-yl)-1-phenylbutan-2-ol] were 28.8 µg/mL (≈ 56.5 µM), 1.98 µg/mL, 0.25 µg/mL, 3.94 µg/mL (≈ 7.73 µM) and 26.3 µg/mL (≈ 51.6 µM).
Regarding `COc1ncc(C(C)(C)C)cc1C(c1ccccc1)C(O)(CCN(C)C)c1cccc2ccccc12` (stereo not drawn) [Compound 177, 1-(5-tert-butyl-2-methoxypyridin-3-yl)-4-dimethylamino-2-(naphthalen-1-yl)-1-phenylbutan-2-ol], the CC50 in data set [1] is > 64 µg/mL. Moreover, the MIC came to 1.74 µg/mL in the data set with M. tuberculosis H37Rv (setting [3]), 0.125 µg/mL in data set [2] and 1.81 µg/mL (≈ 3.75 µM) in the data set on M. tuberculosis H37R. Further, inhibition with Vero Cell was half-maximal at 27.6 µg/mL (≈ 57.2 µM) (IC50).
Turning to `COc1ncc(-c2ccccc2Cl)cc1C(c1ccccc1)C(O)(CCN(C)C)c1cccc2ccccc12` (stereo not drawn) [Compound 107], in data set [1], the CC50 was > 64 µg/mL. Moreover, the figures for the MIC (in the data set on M. tuberculosis H37Rv (setting [3]); in data set [2]; in the data set with M. tuberculosis H37R) were 1.17 µg/mL, 0.5 µg/mL and 3.03 µg/mL (≈ 5.64 µM), respectively. Further, the IC50 in the data set with Vero Cell was > 50 µg/mL.
In the case of `COc1ncc(-c2ccccc2)cc1C(c1ccccc1)C(O)(CCN(C)C)c1ccccc1` (stereo not drawn) [Compound 22, 4-(dimethylamino)-1-(2-methoxy-5-phenylpyridin-3-yl)-1,2-diphenylbutan-2-ol], the CC50 in data set [1] came out at 12 µg/mL (≈ 26.4 µM). Also, the MIC in the data set with M. tuberculosis H37Rv (setting [3]) is 1.48 µg/mL; in the data set on M. tuberculosis H37R, 1.15 µg/mL (≈ 2.54 µM). The IC50 in the data set with Vero Cell was > 50 µg/mL.
Consider `NNC(=O)c1ccncc1` [isoniazide, isoniazid, reference compound], for which the MIC with M. tuberculosis H37Rv (setting [4]) was 0.37 µM. Also, in the data set with M. tuberculosis H37Rv (setting [5]), the “MABA MIC vs. H37Rv” value was found to be 0.53 µM.
For `COc1ncc(-c2ccc(Cl)cc2)cc1C(c1ccccc1)C(O)(CCN(C)C)c1cccc(F)c1F` (stereo not drawn) [Compound 287, 1-(5-(4-chlorophenyl)-2-methoxy-3-pyridyl)-2-(2,3-difluorophenyl)-4-dimethylamino-1-phenylbutan-2-ol], the CC50 in data set [1] was > 64 µg/mL. The MIC was 0.04 µg/mL with M. tuberculosis H37Rv (setting [3]), 0.0312 µg/mL in data set [2] and 0.16 µg/mL (≈ 0.306 µM) with M. tuberculosis H37R. For the same molecule, the IC50 in the data set on Vero Cell was > 32 µg/mL.
As to `COc1ncc(-c2ccccc2)cc1C(c1cccc(F)c1)C(O)(CCN(C)C)c1ccccc1` (stereo not drawn) [Compound 55, 4-(dimethylamino)-1-(3-fluorophenyl)-1-(2-methoxy-5-phenylpyridin-3-yl)-2-phenylbutan-2-ol], the MIC in the data set with M. tuberculosis H37Rv (setting [3]) stood at 1.15 µg/mL; in data set [2] it was 0.125 µg/mL; with M. tuberculosis H37R, 2.06 µg/mL (≈ 4.38 µM). Also, the IC50 in the data set with Vero Cell was > 50 µg/mL.
In the case of `COc1cccc(C(c2cc(-c3ccc(Cl)cc3)cnc2OC)C(O)(CCN(C)C)c2cccc(Cl)c2)c1OC` (single isomer, unassigned) [Compound 399], the CC50 in data set [1] was > 64 µg/mL. Moreover, the MIC in data set [2] is ≤ 0.0625 µg/mL.
Consider `COc1ncc(-c2ccccc2)cc1C(c1cccc(Cl)c1)C(O)(CCN(C)C)c1ccccc1` (stereo not drawn) [Compound 43, 1-(3-chlorophenyl)-4-(dimethylamino)-1-(2-methoxy-5-phenylpyridin-3-yl)-2-phenylbutan-2-ol], for which the MIC in the data set with M. tuberculosis H37Rv (setting [3]) was determined as 1.18 µg/mL; in data set [2] it was 0.125 µg/mL; in the data set on M. tuberculosis H37R it was 1.42 µg/mL (≈ 2.92 µM). Besides, the IC50 with Vero Cell is > 50 µg/mL.
For `COc1ncc(-c2ccc(Br)cc2)cc1C(c1ccccc1)C(O)(CCN(C)C)c1cc(F)ccc1F` (stereo not drawn) [Compound 308, 1-(5-(4-bromophenyl)-2-methoxypyridin-3-yl)-2-(2,5-difluorophenyl)-4-(dimethylamino)-1-phenylbutan-2-ol], the CC50 in data set [1] is > 64 µg/mL. Moreover, the results for the MIC with M. tuberculosis H37Rv (setting [3]) and in the data set on M. tuberculosis H37R were 0.09 µg/mL and 0.19 µg/mL (≈ 0.335 µM), respectively. Also, the IC50 in the data set with Vero Cell is > 32 µg/mL.
Turning to `COc1ncc(-c2ccccc2)cc1C(c1ccc(Cl)cc1)C(O)(CCN(C)C)c1ccccc1` (stereo not drawn) [Compound 47, 1-(4-chlorophenyl)-4-(dimethylamino)-1-(2-methoxy-5-phenylpyridin-3-yl)-2-phenylbutan-2-ol], the figures for the MIC (in the data set on M. tuberculosis H37Rv (setting [3]); in data set [2]; in the data set with M. tuberculosis H37R) were 1.25 µg/mL, 0.125 µg/mL and 0.75 µg/mL (≈ 1.54 µM), respectively. In addition, the IC50 in the data set on Vero Cell was > 50 µg/mL.
With `COc1ncc(-c2cccc(Cl)c2)cc1C(c1ccccc1)C(O)(CCN(C)C)c1cccc2ccccc12` (stereo not drawn) [Compound 111], the MIC with M. tuberculosis H37Rv (setting [3]) is 2.73 µg/mL; in data set [2] it was 0.5 µg/mL; with M. tuberculosis H37R it was 1.36 µg/mL (≈ 2.53 µM). Besides, the IC50 in the data set on Vero Cell was > 50 µg/mL.
Taken in the same sequence, the figures for `COc1ncc(-c2ccccc2)cc1C(c1ccccc1F)C(O)(CCN(C)C)c1ccccc1` (stereo not drawn) [Compound 51, 4-(dimethylamino)-1-(2-fluorophenyl)-1-(2-methoxy-5-phenylpyridin-3-yl)-2-phenylbutan-2-ol] were 1.2 µg/mL, ≤ 0.0625 µg/mL, 1.77 µg/mL (≈ 3.76 µM) and > 50 µg/mL.
Taken in the same sequence, the figures for `COc1cccc(C(c2cc(-c3ccccc3)cnc2OC)C(O)(CCN(C)C)c2ccccc2)c1OC` (stereo not drawn) [Compound 71, 1-(2,3-dimethoxyphenyl)-4-(dimethylamino)-1-(2-methoxy-5-phenylpyridin-3-yl)-2-phenylbutan-2-ol] were 1.4 µg/mL, ≤ 0.0625 µg/mL, 1.47 µg/mL (≈ 2.87 µM) and > 50 µg/mL.
Turning to `CO[C@H]1/C=C/O[C@@]2(C)Oc3c(C)c(O)c4c(O)c(c(/C=N/N5CCN(C)CC5)c(O)c4c3C2=O)NC(=O)/C(C)=C\C=C\[C@H](C)[C@H](O)[C@@H](C)[C@@H](O)[C@@H](C)[C@H](OC(C)=O)[C@@H]1C` [rifampin, reference compound], in the data set with M. tuberculosis H37Rv (setting [4]), the MIC turned out to be 0.12 µM. Moreover, the “MABA MIC vs. H37Rv” value with M. tuberculosis H37Rv (setting [5]) worked out at 0.24 µM.
Consider `COc1cc(-c2cnc(OC)c(C(c3ccccc3)C(O)(CCN(C)C)c3cccc4ccccc34)c2)ccc1Cl` (stereo not drawn) [Compound 379], for which, in data set [1], the CC50 was 61.8 µg/mL (≈ 109 µM). The MIC in data set [2] amounted to 0.125 µg/mL.
As for `COc1ncc(-c2ccccc2F)cc1C(c1ccccc1)C(O)(CCN(C)C)c1cccc2ccccc12` (stereo not drawn) [Compound 83, 4-(dimethylamino)-1-(5-(2-fluorophenyl)-2-methoxypyridin-3-yl)-2-(naphthalen-1-yl)-1-phenylbutan-2-ol], the values for the MIC (in the data set with M. tuberculosis H37Rv (setting [3]); in data set [2]; with M. tuberculosis H37R) were 1.41 µg/mL, 0.125 µg/mL and 0.57 µg/mL (≈ 1.09 µM), respectively. Besides, the IC50 with Vero Cell is > 50 µg/mL.
For the molecule `COc1ncc(-c2ccc(Cl)cc2)cc1C(c1ccc(Cl)cc1)C(O)(CCN(C)C)c1cccc2ccccc12` (stereo not drawn) [Compound 329], the CC50 in data set [1] is > 64 µg/mL. Besides, the MIC in the data set on M. tuberculosis H37Rv (setting [3]) was determined as 0.08 µg/mL; in the data set on M. tuberculosis H37R, 2.02 µg/mL (≈ 3.53 µM). In addition, in the data set on Vero Cell, the IC50 is > 32 µg/mL.

These data come from US9878982B2, “Pyridine derivatives and anti-mycobacterial use thereof” (priority 2014, dated 2018).
